Like-named read-outs stand apart in the source and are kept apart here.
Experiments:
[1] = biological target: T1, recombinant variant E. indica PPO1 A212T (Eleusine indica, UniProt A0A6G5XNV7, A212T); assay: In vitro PPO enzyme activity inhibition, variant PPO1 A212T; assay type: biochemical; settings: for inhibition at 10 µM: read-out: Variant E. indica PPO1 A212T % inhibition
From the text: (§1) Effects of A212T substitution were studied using the E. indica backbone. The wild-type E. indica PPO1 and the E. indica PPO1 A212T variants were synthesized de novo and subcloned into pRSetB plasmid (Invitrogen, Carlsbad, Calif.). The complete description of expression and purification of E. indica PPO1 and E. indica PPO1 A212T variant proteins were referenced to the method described for PPO2 by Rangani et al. (2019, Frontiers in Plant Sci., 10:568). Six PPO inhibitors, belonging to five different chemical families, were evaluated on the PPO enzyme activity at a concentrations ranging from 5.00×10^−5M to 5.12×10^−12M. Oxadiazon, sulfentrazone, saflufenacil and lactofen are from the class of oxadiazole, triazolinone, pyrimidinedione, and diphenyl ether, respectively. Flumioxazin and trifludimoxazin are from the same chemical family, N-phenylphthalimide. […] The assay was replicated twice.

[2] = biological target: T2, recombinant wild-type E. indica PPO1 (Eleusine indica, UniProt A0A6G5XNV7); assay: In vitro PPO enzyme activity inhibition, wild-type PPO1; assay type: biochemical; settings: for Wild-type E. indica PPO1 % inhibition / inhibition at 10 µM: highest herbicide concentration 10^−5 M
T2 sequence (A0A6G5XNV7 1-529): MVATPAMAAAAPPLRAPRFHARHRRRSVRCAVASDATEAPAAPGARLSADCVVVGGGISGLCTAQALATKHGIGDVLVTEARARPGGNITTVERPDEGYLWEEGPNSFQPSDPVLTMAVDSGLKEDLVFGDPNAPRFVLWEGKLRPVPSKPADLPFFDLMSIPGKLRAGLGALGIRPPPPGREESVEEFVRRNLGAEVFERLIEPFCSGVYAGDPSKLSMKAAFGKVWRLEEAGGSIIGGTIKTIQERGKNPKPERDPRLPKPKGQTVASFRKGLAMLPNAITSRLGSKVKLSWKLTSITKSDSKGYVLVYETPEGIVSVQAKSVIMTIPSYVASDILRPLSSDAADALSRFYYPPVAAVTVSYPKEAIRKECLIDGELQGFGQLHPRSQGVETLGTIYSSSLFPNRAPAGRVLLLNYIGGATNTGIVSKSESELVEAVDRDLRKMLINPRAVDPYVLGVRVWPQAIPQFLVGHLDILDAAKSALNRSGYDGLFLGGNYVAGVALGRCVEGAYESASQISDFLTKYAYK
From the text: as §1, with “Six PPO inhibitors, belonging to five different chemical families, were evaluated on the PPO enzyme activity at a concentrations ranging from 5.00×10^−5M to 5.12×10^−12M.” left out

[3] = biological target: T1, recombinant variant E. indica PPO1 A212T; assay: In vitro PPO enzyme activity inhibition, variant PPO1 A212T; assay type: biochemical; settings: highest herbicide concentration 10^−5 M
[4] = test system: Eleusine indica biotypes (S, R1, R2); assay: Herbicide rate screening assay (greenhouse, foliar-applied, visual injury); assay type: in vivo; settings: for I50, estimated rate required to reduce Eleusine indica biotype by 50% (Visual Control/Injury) / I90, estimated rate required to reduce Eleusine indica biotype by 90% (Visual Control/Injury): injury scores 14 days after treatment; for Parameter estimate a of sigmoidal model y = a/(1 + exp(−(x − x0)/b)) for percent injury / Parameter estimate b of sigmoidal model y = a/(1 + exp(−(x − x0)/b)) for percent injury / Parameter estimate x0 of sigmoidal model y = a/(1 + exp(−(x − x0)/b)) for percent injury: x = log-transformed herbicide rate (kg/ha), 14 DAT
From the text: Three E. indica biotypes from different locations were used in this study. The R1 biotype was collected in Country Club of Virginia, Richmond, Va., and the R2 biotype was from River Bend Golf, New Bern, N.C. These two biotypes were previous confirmed resistant to preemergence application of oxadiazon, but have not been screened to other PPO inhibitors. The S biotype was collected from the Alabama Agricultural Experiment Station, Plant Breeding Unit, Tallassee, Ala., which was confirmed susceptible to PPO inhibitors. Seeds of the mature plants were harvested, air dried and stored in the 4° C. freezer until planted in the greenhouse.
Greenhouse conditions were 30±3° C. at day/night temperature and ˜70% average relative humidity. The E. indica seeds were placed on the soil surface and lightly covered with sand in 28 cm*20 cm flats and watered as needed daily to ensure germination. Two weeks after emergence, seedlings were separated and transplanted to in individual 10-cm pots (volumes=0.5 L). Pots were filled with surface horizon of Marvyn sandy loam (fine-loamy, kaolinitic, thermic Typic Kanhapludults) soil with pH 6.4 and 1.2% organic matter. The plants were irrigated three times daily for 2 min with overhead irrigation and fertilized once at one week after transplanting at approximately 50 kg N ha^−1 with Scott's Miracle-Gro All-Purpose fertilizer (The Scotts Miracle-Gro Co. Marysville, Ohio). Plants were 5-10 cm in height with 3-5 tillers in size at the time of herbicide treatment.
Herbicide treatments were foliar-applied at 280 L/ha using an enclosed spray chamber with a single 8002E nozzle (TeeJet Spray Systems Co, Wheaton, Ill.) at 32 PSI. Four herbicides were selected for the experiment: oxadiazon (Ronstar FLO, Bayer Environmental Sci., Research Triangle Park, N.C.), sulfentrazone (Dismiss, FMC Corporation, Philadelphia, Pa.), flumioxazin (Sureguard, Valent Corp., Walnut Creek, Calif.) and lactofen (Cobra, Valent Corp., Walnut Creek, Calif.). All the herbicides are from different herbicide chemical families of PPO inhibitors: oxadiazoles, triazolinone, N-phenylphthalimide and diphenyl ether, respectively. Herbicides were applied at 7 different rates based on each herbicide label rate: oxadiazon ranging from 0.14 to 8.96 kg/ha, sulfentrazone from 0.07 to 4.50 kg/ha, flumioxazin from 0.08 to 5.70 kg/ha, and lactofen from 0.029 to 1.75 kg/ha. A non-treated control (0 kg/ha) was included. 192 plants of each biotype were tested and experiments were conducted as completely random design, three replications for two runs.
The visual injury rating scores per plant at 14 days after treatment (DAT) were recorded, where the visual injury rating scores were based on a 0 to 100 scale, which 0 is equated to no phytotoxicity and 100 is equated to complete control. Data subjected to ANOVA analysis at a significance level of P<0.05 using the PROC GLM procedure of SAS 9.4 (SAS Institute Inc., Cary, N.C.). All the herbicide rates were log transformed to make equal spacing between the herbicide treatments in order to facilitate regression analysis. The non-treated control was transformed to equal spacing based on the log rates of each herbicide, respectively. Data were fitted to a sigmoidal model using SigmaPlot 10.2 (Systat Software Inc., London, UK) using a sigmoidal function (Equation 1).
y=a/(1+e^(−((x−x0)/b))) (1)
In this fit sigmoidal model, where y represents E. indica visual damage relative to non-treated control (%), x represents the log-transformed herbicide rates (kg/ha), three parameters (a, b, x0) represents the y intercept.

[5] = recombinant enzyme, in vitro, read-out: Wild-type E. indica PPO1 sensitivity [IC50]

T1 sequence (A0A6G5XNV7 entry or part of it A212T): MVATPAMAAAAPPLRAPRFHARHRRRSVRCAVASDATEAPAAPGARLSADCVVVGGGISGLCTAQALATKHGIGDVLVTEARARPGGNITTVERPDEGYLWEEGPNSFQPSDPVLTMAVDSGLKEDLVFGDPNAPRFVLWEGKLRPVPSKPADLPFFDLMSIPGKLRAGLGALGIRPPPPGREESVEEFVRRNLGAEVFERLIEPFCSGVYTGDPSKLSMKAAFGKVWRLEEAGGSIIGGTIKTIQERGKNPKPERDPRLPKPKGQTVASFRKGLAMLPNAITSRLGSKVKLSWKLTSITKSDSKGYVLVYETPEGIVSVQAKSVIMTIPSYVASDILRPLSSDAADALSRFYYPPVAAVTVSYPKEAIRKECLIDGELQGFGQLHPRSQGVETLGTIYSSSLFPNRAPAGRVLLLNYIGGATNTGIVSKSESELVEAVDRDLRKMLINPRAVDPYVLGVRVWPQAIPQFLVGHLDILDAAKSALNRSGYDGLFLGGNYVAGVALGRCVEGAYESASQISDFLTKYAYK

Structure (SMILES)	IC50 [1] [nM]	inhibition at 10 µM [1] [%]	IC50 [2] [nM]	Wild-type E. indica PPO1 % inhibition [2] [%]	inhibition at 10 µM [2] [%]	Variant E. indica PPO1 A212T % inhibition [3] [%]	I50, estimated rate required to reduce Eleusine indica biotype by 50% (Visual Control/Injury) ([4]; R1 biotype) [kg ha^−1]	I90, estimated rate required to reduce Eleusine indica biotype by 90% (Visual Control/Injury) ([4]; R1 biotype) [kg ha^−1]	Parameter estimate a of sigmoidal model y = a/(1 + exp(−(x − x0)/b)) for percent injury ([4]; R1 biotype)	Parameter estimate b of sigmoidal model y = a/(1 + exp(−(x − x0)/b)) for percent injury ([4]; R1 biotype)	Parameter estimate x0 of sigmoidal model y = a/(1 + exp(−(x − x0)/b)) for percent injury ([4]; R1 biotype)	I50, estimated rate required to reduce Eleusine indica biotype by 50% (Visual Control/Injury) ([4]; R2 biotype) [kg ha^−1]	I90, estimated rate required to reduce Eleusine indica biotype by 90% (Visual Control/Injury) ([4]; R2 biotype) [kg ha^−1]	Parameter estimate a of sigmoidal model y = a/(1 + exp(−(x − x0)/b)) for percent injury ([4]; R2 biotype)	Parameter estimate b of sigmoidal model y = a/(1 + exp(−(x − x0)/b)) for percent injury ([4]; R2 biotype)	Parameter estimate x0 of sigmoidal model y = a/(1 + exp(−(x − x0)/b)) for percent injury ([4]; R2 biotype)	I50, estimated rate required to reduce Eleusine indica biotype by 50% (Visual Control/Injury) ([4]; S biotype) [kg ha^−1]	I90, estimated rate required to reduce Eleusine indica biotype by 90% (Visual Control/Injury) ([4]; S biotype) [kg ha^−1]	Parameter estimate a of sigmoidal model y = a/(1 + exp(−(x − x0)/b)) for percent injury ([4]; S biotype)	Parameter estimate b of sigmoidal model y = a/(1 + exp(−(x − x0)/b)) for percent injury ([4]; S biotype)	further results
CCOC(=O)C(C)OC(=O)c1cc(Oc2ccc(C(F)(F)F)cc2Cl)ccc1[N+](=O)[O-] (stereo not drawn) [Lactofen, lactofen]	362	> 90	26.4	>90	> 90	>90	0.04	0.51	84.65	0.29	−1.44	0.06	0.50	89.20	0.30	−1.31	0.03	0.17	90.29	0.13	Parameter estimate x0 of sigmoidal model y = a/(1 + exp(−(x − x0)/b)) for percent injury ([4]; S biotype): −1.52
CC(C)N(C)S(=O)(=O)NC(=O)c1cc(-n2c(=O)cc(C(F)(F)F)n(C)c2=O)c(F)cc1Cl [Saflufenacil, saflufenacil]	449	> 90	–	–	> 90	–	–	–	–	–	–	–	–	–	–	–	–	–	–	–	IC50 [2, 5]: 19.4 nM
C#CCN1C(=O)COc2cc(F)c(N3C(=O)C4=C(CCCC4)C3=O)cc21 [Flumioxazin, flumioxazin]	13.4	> 90	16.7	>90	> 90	>90	0.08	0.10	96.53	0.04	−1.11	0.08	0.10	96.81	0.04	−1.11	0.08	0.09	98.00	0.02	Parameter estimate x0 of sigmoidal model y = a/(1 + exp(−(x − x0)/b)) for percent injury ([4]; S biotype): −1.09
Cc1nn(-c2cc(NS(C)(=O)=O)c(Cl)cc2Cl)c(=O)n1C(F)F [Sulfentrazone, sulfentrazone]	1870	76	275	–	> 90	–	0.15	0.32	95.12	0.12	−0.84	0.18	0.63	100.90	0.25	−0.73	0.08	0.19	98.21	0.16	Parameter estimate x0 of sigmoidal model y = a/(1 + exp(−(x − x0)/b)) for percent injury ([4]; S biotype): −1.10
C#CCN1C(=O)C(F)(F)Oc2cc(F)c(-n3c(=O)n(C)c(=S)n(C)c3=O)cc21 [Trifludomoxazin, trifludimoxazin]	–	–	–	>90	–	>90	–	–	–	–	–	–	–	–	–	–	–	–	–	–	IC50 ([1]; recombinant enzyme, in vitro, read-out: Variant E. indica PPO1 A212T sensitivity [IC50]): 26.5 nM; IC50 [2, 5]: 17.1 nM
